The text below walks through data of patent US8013156B2 (Exelixis, Inc., priority 2003, dated 2011).

pIC50: −log10 of the molar value. Bounds are passed on as bounds.

Tie-2, sequence (Q02763 23-1124): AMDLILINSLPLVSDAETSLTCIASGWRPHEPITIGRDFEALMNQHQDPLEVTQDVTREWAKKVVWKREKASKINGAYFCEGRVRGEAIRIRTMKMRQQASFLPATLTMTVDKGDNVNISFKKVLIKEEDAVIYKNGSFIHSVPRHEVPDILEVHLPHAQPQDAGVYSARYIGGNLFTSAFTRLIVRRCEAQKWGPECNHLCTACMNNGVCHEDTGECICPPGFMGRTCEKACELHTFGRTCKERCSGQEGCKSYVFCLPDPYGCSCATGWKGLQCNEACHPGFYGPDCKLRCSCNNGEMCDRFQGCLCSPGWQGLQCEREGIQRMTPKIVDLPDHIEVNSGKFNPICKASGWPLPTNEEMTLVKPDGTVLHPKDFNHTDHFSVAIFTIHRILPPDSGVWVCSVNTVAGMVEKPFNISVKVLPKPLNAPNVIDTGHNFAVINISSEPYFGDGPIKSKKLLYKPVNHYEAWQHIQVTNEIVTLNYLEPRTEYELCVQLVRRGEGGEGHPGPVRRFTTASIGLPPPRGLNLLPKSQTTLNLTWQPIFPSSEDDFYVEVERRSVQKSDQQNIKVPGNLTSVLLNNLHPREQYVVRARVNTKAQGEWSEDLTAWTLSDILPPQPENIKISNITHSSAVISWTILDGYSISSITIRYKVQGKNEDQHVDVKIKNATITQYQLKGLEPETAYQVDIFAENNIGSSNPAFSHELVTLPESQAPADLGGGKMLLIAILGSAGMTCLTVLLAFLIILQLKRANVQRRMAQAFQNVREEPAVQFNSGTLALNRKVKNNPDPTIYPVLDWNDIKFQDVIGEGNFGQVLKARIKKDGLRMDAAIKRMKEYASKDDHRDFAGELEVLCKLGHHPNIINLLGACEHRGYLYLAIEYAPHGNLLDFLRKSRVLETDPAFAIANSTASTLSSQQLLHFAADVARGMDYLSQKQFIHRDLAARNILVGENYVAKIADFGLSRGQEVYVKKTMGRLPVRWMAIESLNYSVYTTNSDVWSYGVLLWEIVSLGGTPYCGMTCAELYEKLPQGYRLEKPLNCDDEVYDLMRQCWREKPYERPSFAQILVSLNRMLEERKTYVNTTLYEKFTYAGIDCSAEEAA

The assay concerns the target Tie-2 (Homo sapiens, UniProt Q02763). In words: Tie-2 tyrosine kinase activity assay (luciferase/luciferin ATP consumption with pEY substrate, or 33P-ATP incorporation). In kind it is biochemical. As to conditions: human enzyme Tie-2. The procedure, abridged:
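Values are IC50 categories (A <50 nM to D ≥10,000 nM), with Ki obtainable by fitting rates to a tight-binding model. Assay formats: 33P-ATP phosphate transfer to adsorbed generic substrate counted by scintillation, or luciferase-detected ATP depletion using pEY.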
The term pIC50 denotes −log10 of the IC50, conventionally taken in molar units. Higher therefore signals a low IC50. `Nc1nccc(COc2nsnc2N2CCN(C(=O)Nc3cc(C(F)(F)F)ccc3F)CC2)n1` [Example 232, 4-(4-{[(2-aminopyrimidin-4-yl)methyl]oxy}-1,2,5-thiadiazol-3-yl)-N-[2-fluoro-5-(trifluoromethyl)phenyl]piperazine-1-carboxamide] gave a negative-log IC50 (pIC50) of 6.00 to 7.30. Take `CCc1ccc(F)c(NC(=O)N2CCN(c3ncccc3OCc3ccnc(N)n3)CC2)c1` [Example 180, 4-(3-{[(2-aminopyrimidin-4-yl)methyl]oxy}pyridin-2-yl)-N-(5-ethyl-2-fluorophenyl)piperazine-1-carboxamide]: the pIC50 was > 7.30. Under `COc1cc2nccc(Oc3nsnc3N3CCN(C(=O)Nc4cc(C(F)(F)F)cc(C(F)(F)F)c4)CC3)c2cc1OC` [Example 276, 4-(4-{[6,7-bis(methyloxy)quinolin-4-yl]oxy}-1,2,5-thiadiazol-3-yl)-N-[3,5-bis(trifluoromethyl)phenyl]piperazine-1-carboxamide] stands > 7.30; under `Nc1nccc(COc2cccnc2N2CCN(C(=O)Nc3cccc(Cl)c3)CC2)n1` [Example 183, 4-(3-{[(2-aminopyrimidin-4-yl)methyl]oxy}pyridin-2-yl)-N-(3-chlorophenyl)piperazine-1-carboxamide], 6.00 to 7.30; under `CC1CN(C(=O)Nc2cccc(C(F)(F)F)c2)CCN1c1nccnc1OCc1ccncc1` (stereo not drawn) [Example 71, 3-methyl-4-{3-[(pyridin-4-ylmethyl)oxy]pyrazin-2-yl}-N-[3-(trifluoromethyl)phenyl]piperazine-1-carboxamide], 6.00 to 7.30.

Consider `Nc1cc(COc2nsnc2N2CCN(C(=O)Nc3cccc(SC(F)(F)F)c3)CC2)ccn1` [Example 147, 4-(4-{[(2-aminopyridin-4-yl)methyl]oxy}-1,2,5-thiadiazol-3-yl)-N-{3-[(trifluoromethyl)thio]phenyl}piperazine-1-carboxamide], for which the negative-log IC50 (pIC50) is > 7.30. Under `COc1cccc(NC(=O)N2CCN(c3ncccc3OCc3ccnc(N)n3)CC2)c1` [Example 166, 4-(3-{[(2-aminopyrimidin-4-yl)methyl]oxy}pyridin-2-yl)-N-[3-(methyloxy)phenyl]piperazine-1-carboxamide] stands 6.00 to 7.30; under `Nc1nccc(COc2ccccc2N2CCN(C(=O)Nc3cc(F)cc(C(F)(F)F)c3)CC2)n1` [Example 272, 4-(2-{[(2-aminopyrimidin-4-yl)methyl]oxy}phenyl)-N-[3-fluoro-5-(trifluoromethyl)phenyl]piperazine-1-carboxamide], > 7.30; under `O=C(Nc1cc(C(F)(F)F)cc(C(F)(F)F)c1)N1CCN(c2nccnc2OCc2ccnc(Cl)c2)CC1` [Example 84, N-[3,5-bis(trifluoromethyl)phenyl]-4-(3-{[(2-chloropyridin-4-yl)methyl]oxy}pyrazin-2-yl)piperazine-1-carboxamide], 6.00 to 7.30. Regarding `CC1CN(c2nccnc2OCc2ccncc2)C(C)CN1C(=O)Nc1cccc(C(F)(F)F)c1` (stereo not drawn) [Example 79, 2,5-dimethyl-4-{3-[(pyridin-4-ylmethyl)oxy]pyrazin-2-yl}-N-[3-(trifluoromethyl)phenyl]piperazine-1-carboxamide], the negative logarithm of the IC50 (pIC50) was 6.00 to 7.30. Take `Nc1nccc(COc2cccnc2N2CCN(C(=O)N3CCCc4ccccc43)CC2)n1` [Example 219, 4-[({2-[4-(3,4-dihydroquinolin-1(2H)-ylcarbonyl)piperazin-1-yl]pyridin-3-yl}oxy)methyl]pyrimidin-2-amine]: the pIC50 was ≤ 5.00. As for `Nc1nccc(COc2cccnc2N2CCN(CC(=O)Nc3cc(C(F)(F)F)cc(C(F)(F)F)c3)CC2)n1` [Example 177, 2-[4-(3-{[(2-aminopyrimidin-4-yl)methyl]oxy}pyridin-2-yl)piperazin-1-yl]-N-[3,5-bis(trifluoromethyl)phenyl]acetamide], the figure is 5.00 to 6.00; as for `CCc1cc(Br)cc(NC(=O)N2CCN(c3ncccc3OCc3ccnc(N)n3)CC2)c1` [Example 181, 4-(3-{[(2-aminopyrimidin-4-yl)methyl]oxy}pyridin-2-yl)-N-(3-bromo-5-ethylphenyl)piperazine-1-carboxamide], > 7.30; as for `NC(=O)c1cnc(OCc2ccnc(N)n2)c(N2CCN(C(=O)Nc3cc(C(F)(F)F)cc(C(F)(F)F)c3)CC2)n1` [Example 275, 5-{[(2-aminopyrimidin-4-yl)methyl]oxy}-6-[4-({[3,5-bis(trifluoromethyl)phenyl]amino}carbonyl)piperazin-1-yl]pyrazine-2-carboxamide], > 7.30. For the molecule `O=C(Nc1cc(C(F)(F)F)cc(C(F)(F)F)c1)N1CCN(c2nsnc2OCc2ccsc2)CC1` [Example 13], the pIC50 was ≤ 5.00. `O=C(Nc1cc(C(F)(F)F)cc(C(F)(F)F)c1)N1CCN(c2nsnc2OCCCc2cccnc2)CC1` [Example 29, N-[3,5-bis(trifluoromethyl)phenyl]-4-{4-[(3-pyridin-3-ylpropyl)oxy]-1,2,5-thiadiazol-3-yl}piperazine-1-carboxamide] gave a pIC50 of 5.00 to 6.00.

Molecule `CC(=O)c1cccc(NC(=O)N2CCN(c3nsnc3OCc3ccnc(N)n3)CC2)c1` [Example 267, N-(3-acetylphenyl)-4-(4-{[(2-aminopyrimidin-4-yl)methyl]oxy}-1,2,5-thiadiazol-3-yl)piperazine-1-carboxamide] had a negative logarithm of the IC50 (pIC50) of 5.00 to 6.00. Molecule `Nc1nccc(COc2cccnc2N2CCN(C(=O)Nc3ccccc3)CC2)n1` [Example 178, 4-(3-{[(2-aminopyrimidin-4-yl)methyl]oxy}pyridin-2-yl)-N-phenylpiperazine-1-carboxamide] gave a pIC50 of 5.00 to 6.00. Under `Nc1cc(COc2nsnc2N2CCN(C(=O)Nc3cccc4ccccc34)CC2)ccn1` [Example 149, 4-(4-{[(2-aminopyridin-4-yl)methyl]oxy}-1,2,5-thiadiazol-3-yl)-N-naphthalen-1-ylpiperazine-1-carboxamide] stands ≤ 5.00. Turning to `CCc1cccc(NC(=O)N2CCN(c3ncc(Br)cc3OCc3ccnc(N)n3)CC2)c1` [Example 190, 4-(3-{[(2-aminopyrimidin-4-yl)methyl]oxy}-5-bromopyridin-2-yl)-N-(3-ethylphenyl)piperazine-1-carboxamide], the pIC50 was > 7.30. For the molecule `O=C(Nc1cc(C(F)(F)F)cc(C(F)(F)F)c1)N1CCCN(c2nsnc2OCc2ccncc2)CC1` [Example 23], the negative-log IC50 (pIC50) was 6.00 to 7.30. `CCNc1cc(COc2nsnc2N2CCN(C(=O)Nc3cc(C(F)(F)F)cc(C(F)(F)F)c3)CC2)ccn1` [Example 113, N-[3,5-bis(trifluoromethyl)phenyl]-4-[4-({[2-(ethylamino)pyridin-4-yl]methyl}oxy)-1,2,5-thiadiazol-3-yl]piperazine-1-carboxamide]: the negative-log IC50 (pIC50) is > 7.30. Molecule `O=C(Nc1cccc(Br)c1)N1CCN(c2nsnc2OCc2ccncc2)CC1` [Example 5] had a pIC50 of 5.00 to 6.00. Take `CC(C)c1cccc(NC(=O)N2CCN(c3nccnc3OCc3ccnc(N)n3)CC2)c1` [Example 251, 4-(3-{[(2-aminopyrimidin-4-yl)methyl]oxy}pyrazin-2-yl)-N-[3-(1-methylethyl)phenyl]piperazine-1-carboxamide]: the negative logarithm of the IC50 (pIC50) is > 7.30. Turning to `O=C(Nc1nccc(COc2nsnc2N2CCN(C(=O)Nc3cc(C(F)(F)F)cc(C(F)(F)F)c3)CC2)n1)c1ccccc1` [Example 126, N-[3,5-bis(trifluoromethyl)phenyl]-4-{4-[({2-[(phenylcarbonyl)amino]pyrimidin-4-yl}methyl)oxy]-1,2,5-thiadiazol-3-yl}piperazine-1-carboxamide], the pIC50 was 6.00 to 7.30. As for `Nc1nccc(COc2cccnc2N2CCN(C(=O)Nc3cc(Cl)cc(Cl)c3)CC2)n1` [Example 197, 4-(3-{[(2-aminopyrimidin-4-yl)methyl]oxy}pyridin-2-yl)-N-(3,5-dichlorophenyl)piperazine-1-carboxamide], the negative-log IC50 (pIC50) is > 7.30. For `CN1CCN(CC(=O)Nc2cc(COc3cccnc3N3CCN(C(=O)Nc4cc(C(F)(F)F)cc(Cl)c4F)CC3)ccn2)CC1` [Example 243, N-[3-chloro-2-fluoro-5-(trifluoromethyl)phenyl]-4-(3-{[(2-{[(4-methylpiperazin-1-yl)acetyl]amino}pyridin-4-yl)methyl]oxy}pyridin-2-yl)piperazine-1-carboxamide], the pIC50 is > 7.30. Under `Nc1nccc(COc2nsnc2N2CCN(C(=O)Cc3cc(C(F)(F)F)cc(C(F)(F)F)c3)CC2)n1` [Example 274, 4-({[4-(4-{[3,5-bis(trifluoromethyl)phenyl]acetyl}piperazin-1-yl)-1,2,5-thiadiazol-3-yl]oxy}methyl)pyrimidin-2-amine] stands 6.00 to 7.30. On to `CCc1cc(NC(=O)N2CCN(c3ncccc3OCc3ccnc(N)n3)CC2)ccc1F` [Example 176, 4-(3-{[(2-aminopyrimidin-4-yl)methyl]oxy}pyridin-2-yl)-N-(3-ethyl-4-fluorophenyl)piperazine-1-carboxamide], for which the pIC50 is > 7.30. With `Nc1nccc(COc2cccnc2N2CCN(C(=O)NC3CCCCC3)CC2)n1` [Example 206, 4-(3-{[(2-aminopyrimidin-4-yl)methyl]oxy}pyridin-2-yl)-N-cyclohexylpiperazine-1-carboxamide], the pIC50 was 5.00 to 6.00. Under `Nc1nccc(COc2cccnc2N2CCN(C(=O)Nc3cc(Cl)cc(C(F)(F)F)c3)CC2)n1` [Example 235, 4-(3-{[(2-aminopyrimidin-4-yl)methyl]oxy}pyridin-2-yl)-N-[3-chloro-5-(trifluoromethyl)phenyl]piperazine-1-carboxamide] stands > 7.30. As to `COC(=O)Nc1cc(COc2cccnc2N2CCN(C(=O)Nc3cccc(Br)c3)CC2)ccn1` [Example 164, methyl [4-({[2-(4-{[(3-bromophenyl)amino]carbonyl}piperazin-1-yl)pyridin-3-yl]oxy}methyl)pyridin-2-yl]carbamate], the pIC50 is > 7.30. Turning to `CN1CCN(CC(=O)Nc2cc(COc3cccnc3N3CCN(C(=O)Nc4cc(Cl)cc(Cl)c4)CC3)ccn2)CC1` [Example 213, N-(3,5-dichlorophenyl)-4-(3-{[(2-{[(4-methylpiperazin-1-yl)acetyl]amino}pyridin-4-yl)methyl]oxy}pyridin-2-yl)piperazine-1-carboxamide], the pIC50 was > 7.30.
